Values of other authors as cited in patent publication US20120028929A1, “TETRACYCLINE STABILIZING FORMULATIONS” (ALACRITY BIOSCIENCE, INC., priority 2008, published 2012).

Details: previous studies; cited from earlier work

C[C@H]1c2cccc(O)c2C(O)=C2C(=O)[C@]3(O)C(O)=C(C(N)=O)C(=O)[C@H](N(C)C)[C@@H]3[C@@H](O)[C@@H]21 [4-epidoxycycline]
function as an antibiotic: does not function as an antibiotic
